Test results reported in patent US20210353557A1, “ORAL COMPOSITION CONTAINING REDUCED COENZYME Q10, METHOD FOR PRODUCING SAME, METHOD FOR PREVENTING DISCOLORATION AND DISCOLORATION PREVENTING AGENT” (SUNTORY HOLDINGS LIMITED, priority 2018, published 2021).

Test: Color difference (ΔE) after storage under accelerated condition, Reference Example 1
Format: physicochemical
Details: 40° C., 75% RH; for ΔE After 7 days: 7-day (168-hour) storage; for ΔE After 7 days / ΔE 0-Hour storage: n=1; for change in ΔE value after storage (in words): 7 days; for ΔE 0-Hour storage: start of storage
Description: The L value, a value, and b value of a sample were measured using a color difference meter (trade name: Spectrophotometer SE7700, available from Nippon Denshoku Industries Co., Ltd.). • The number n of samples was 3 for each standard unless otherwise mentioned. The average values of the three samples were defined as the L value, a value, and b value of the standard. • Measurement was performed five times for each sample, and the average value was output as the result. The sample was stirred for each measurement operation so that the whole sample was subjected to the measurement. • In the measurement, about 1 g of a sample was weighed out from a Petri dish for use. The sample in the Petri dish was mixed and homogenized before weighing out.
The ΔE value was calculated by the following formula.
ΔE={(ΔL)^2+(Δa)^2+(Δb)^2}^1/2
For each standard after storage for a predetermined period of time, the ΔE value was calculated based on the 0-time value (value after 0-hour storage) of the standard. For a control after storage for a predetermined period of time, the ΔE value was also calculated based on the 0-time value (value after 0-hour storage) of the control.
About 2 g each of the reduced CoQ10, sesamin compound, theanine, and dextrin were put into separate Petri dishes (n=1) and left to stand at a temperature of 40° C. and a humidity of 75% RH (accelerated condition). The L value, a value, and b value were measured at the start of storage (0-hour storage) and after 7-day (168-hour) storage, and then the ΔE value was calculated. For each sample, the change in appearance after seven days from the start of storage was visually observed.

Row | ΔE After 7 days | change in ΔE value after storage (in words) | appearance by visual observation after seven days | ΔE 0-Hour storage | Structure (SMILES)
1 | 0.1 | little change in ΔE value after storage | white to pale yellow | 0.0 | CCNC(=O)CC[C@H](N)C(=O)O [Standard S-3, Theanine]
2 | 66.4 | increase in ΔE value over time | orange | 0.0 | COc1c(O)c(C)c(C/C=C(\C)CC/C=C(\C)CC/C=C(\C)CC/C=C(\C)CC/C=C(\C)CC/C=C(\C)CC/C=C(\C)CC/C=C(\C)CC/C=C(\C)CCC=C(C)C)c(O)c1OC [Standard S-1, Reduced CoQ10]
